Read-outs that look alike come from different tables or passages of the source. Bounds are passed on as bounds.

The source of these data is patent US20230295157A1, “3-(1H-IMIDAZOL-2-YL)-2,3,8,8A-TETRAHYDROINDOLIZIN-5(1H)-ONE DERIVATIVES USEFUL AS FACTOR XIA INHIBITORS” (JANSSEN PHARMACEUTICA NV, priority 2020, published 2023).

In one assay the target is human plasma kallikrein (Homo sapiens (Human), UniProt P03952). In words: Kallikrein inhibition assay (FLINT) utilizing a quenched AMC peptide substrate. Particulars: 30 min preincubation, kinetic reads over 30 min, Z-Gly-Pro-Arg-AMC substrate 50 μM; read-out: Kallikrein Kin Inh IC50. The assay is classed as biochemical. Put shortly:
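Fluorogenic Z-Gly-Pro-Arg-AMC cleavage (50 μM substrate, 2 nM kallikrein, Tris pH 7.5, CaCl2, BSA, CHAPS, 2% DMSO) read kinetically at 340/440 nm for 30 min after 30-min compound pre-incubation. Compounds in 11-point 3-fold series from 1 μM; percent inhibition fitted to four-parameter equation for IC50.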

The target of the next assay is Factor XIa (Homo sapiens (Human), UniProt P03951). Description: Factor XIa inhibition assay (FLINT) utilizing a fluorophore-quencher pair peptide substrate. The assay is classed as biochemical. To be noted: 30 min preincubation, kinetic reads over 30 min, read-out: FXIa Kin Inh IC50. The gist of the method:
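FXIa ([…]) preincubated 30 min with compound (11-point 3-fold dilution, top 100 nM, 2% DMSO), then 15 μM quenched FXI Arg146-based peptide added; Tris pH 7.5, CaCl2, BSA, CHAPS. Fluorescence 485/520 nm read kinetically every 5 min over 30 min at RT; IC50 by 4-parameter fit.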

The mark [1] stands for this setting: 5Fam-KLTRAETV-K5Tamra substrate 15 μM.
The mark [2] stands for this setting: 5Fam-[…]-K5Tamra substrate 15 μM.

human plasma kallikrein, sequence (P03952 391-638): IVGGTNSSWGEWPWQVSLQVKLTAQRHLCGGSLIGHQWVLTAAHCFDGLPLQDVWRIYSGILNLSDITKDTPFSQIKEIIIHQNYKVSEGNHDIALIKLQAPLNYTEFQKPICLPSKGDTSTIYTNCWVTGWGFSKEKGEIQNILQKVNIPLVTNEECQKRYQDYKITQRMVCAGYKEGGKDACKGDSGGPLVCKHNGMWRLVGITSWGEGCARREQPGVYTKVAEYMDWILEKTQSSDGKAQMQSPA
human plasma kallikrein, sequence (P03952 20-390 partner): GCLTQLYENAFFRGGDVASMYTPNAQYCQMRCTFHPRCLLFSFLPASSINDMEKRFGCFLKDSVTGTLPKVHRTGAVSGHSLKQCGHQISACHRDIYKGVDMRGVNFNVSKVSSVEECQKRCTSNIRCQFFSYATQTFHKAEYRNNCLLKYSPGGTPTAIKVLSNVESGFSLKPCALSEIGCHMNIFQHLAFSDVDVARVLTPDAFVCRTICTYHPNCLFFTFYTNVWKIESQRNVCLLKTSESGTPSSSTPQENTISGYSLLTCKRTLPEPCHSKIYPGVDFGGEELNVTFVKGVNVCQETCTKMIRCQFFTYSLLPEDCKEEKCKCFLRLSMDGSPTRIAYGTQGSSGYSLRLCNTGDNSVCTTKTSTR
Factor XIa, sequence (P03951 388-625): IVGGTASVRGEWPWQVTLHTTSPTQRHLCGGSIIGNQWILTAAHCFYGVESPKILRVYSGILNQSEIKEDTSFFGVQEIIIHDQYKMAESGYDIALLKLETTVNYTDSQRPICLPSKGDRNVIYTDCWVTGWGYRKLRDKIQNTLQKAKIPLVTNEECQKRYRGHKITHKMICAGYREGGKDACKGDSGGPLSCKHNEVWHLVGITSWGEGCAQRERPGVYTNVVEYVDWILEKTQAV
Factor XIa, sequence (P03951 19-387 partner): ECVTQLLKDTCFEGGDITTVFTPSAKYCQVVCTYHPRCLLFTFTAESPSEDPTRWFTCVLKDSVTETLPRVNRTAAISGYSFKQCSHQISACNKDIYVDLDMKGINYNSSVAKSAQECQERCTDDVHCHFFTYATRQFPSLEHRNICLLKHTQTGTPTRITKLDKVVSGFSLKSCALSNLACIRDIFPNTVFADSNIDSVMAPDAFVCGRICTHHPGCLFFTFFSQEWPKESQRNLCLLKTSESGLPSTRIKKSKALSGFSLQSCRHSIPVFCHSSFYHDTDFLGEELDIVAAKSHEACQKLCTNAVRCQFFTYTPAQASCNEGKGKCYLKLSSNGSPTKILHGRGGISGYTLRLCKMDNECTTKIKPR

For the compound `NC(=O)c1ccc(-c2cnc([C@@H]3CC[C@@H]4CC(c5c(-n6cnnn6)ccc(Cl)c5F)=CC(=O)N43)[nH]2)c(F)c1` [Example 196, 4-(2-((3S,8aR)-7-(3-chloro-2-fluoro-6-(1H-tetrazol-1-yl)phenyl)-5-oxo-1,2,3,5,8,8a-hexahydroindolizin-3-yl)-1H-imidazol-4-yl)-3-fluorobenzamide], the figures for the IC50 at human plasma kallikrein and at Factor XIa (setting [1]) were 3.4 nM and 0.6 nM, respectively.
For `NC(=O)c1ccc(-c2c[nH]c([C@@H]3CC[C@H]4CC(c5c(-n6cnnn6)ccc(Cl)c5F)=CC(=O)N43)n2)cc1F` [Example 198, 4-(2-((3S,8aS)-7-(3-chloro-2-fluoro-6-(1H-tetrazol-1-yl)phenyl)-5-oxo-1,2,3,5,8,8a-hexahydroindolizin-3-yl)-1H-imidazol-4-yl)-2-fluorobenzamide], the results for the IC50 on human plasma kallikrein and at Factor XIa (setting [2]) were 14.3 nM and 30.5 nM, respectively.
`O=C1C=C(c2c(-n3cnnn3)ccc(Cl)c2F)CC2CC[C@@H](c3nc(Cl)c(-c4cc[nH]c(=O)c4)[nH]3)N12` (stereo partly drawn) [Example 199, (3S)-7-(3-chloro-2-fluoro-6-(1H-tetrazol-1-yl)phenyl)-3-(4 chloro-5-(2-oxo-1,2-dihydropyridin-4-yl)-1H-imidazol-2-yl)-2,3,8,8a-tetrahydroindolizin-5(1H)-one]: the results for the half-inhibitory concentration (IC50) at human plasma kallikrein and on Factor XIa (setting [1]) were 15.6 nM and 1.3 nM, respectively.
On to `O=C1C=C(c2c(-n3cc(Cl)nn3)ccc(Cl)c2F)C[C@H]2CC[C@@H](c3nc(-c4cc[nH]c(=O)c4F)c[nH]3)N12` [Example 200, (3S,8aR)-7-(3-chloro-6-(4-chloro-1H-1,2,3-triazol-1-yl)-2-fluorophenyl)-3-(4-(3-fluoro-2-oxo-1,2-dihydropyridin-4-yl)-1H-imidazol-2-yl)-2,3,8,8a-tetrahydroindolizin-5(1H)-one], for which the half-maximal inhibitory concentration (IC50) on human plasma kallikrein was found to be 24.4 nM; on Factor XIa (setting [1]) it was 4.4 nM.
For `Nc1noc2ccc(-c3cnc([C@@H]4CC[C@@H]5CC(c6c(-n7cnnn7)ccc(Cl)c6F)=CC(=O)N54)[nH]3)cc12` [Example 201, (3S,8aR)-3-(5-(3-aminobenzo[d]isoxazol-5-yl)-1H-imidazol-2-yl)-7-(3-chloro-2-fluoro-6-(1H-tetrazol-1-yl)phenyl)-2,3,8,8a-tetrahydroindolizin-5(1H)-one], in that order: 6.9 nM and 9.1 nM.
For `NC(=O)c1ccc(-c2nc([C@@H]3CC[C@H]4CC(c5c(-n6cc(C(F)(F)F)nn6)ccc(Cl)c5F)=CC(=O)N43)[nH]c2Cl)s1` [Example 202, 5-(5-Chloro-2-((3S,8aS)-7-(3-chloro-2-fluoro-6-(4-(trifluoromethyl)-1H-1,2,3-triazol-1-yl)phenyl)-5-oxo-1,2,3,5,8,8a-hexahydroindolizin-3-yl)-1H-imidazol-4-yl)thiophene-2-carboxamide], in that order: 1.5 nM and 0.6 nM.
On to `NC(=O)c1ccc(-c2nc([C@@H]3CC[C@@H]4CC(c5c(-n6cc(C(F)(F)F)nn6)ccc(Cl)c5F)=CC(=O)N43)[nH]c2Cl)s1` [Example 203, 5-(5-Chloro-2-((3S,8aR)-7-(3-chloro-2-fluoro-6-(4-(trifluoromethyl)-1H-1,2,3-triazol-1-yl)phenyl)-5-oxo-1,2,3,5,8,8a-hexahydroindolizin-3-yl)-1H-imidazol-4-yl)thiophene-2-carboxamide], for which the IC50 is 2.5 nM on human plasma kallikrein and 0.9 nM at Factor XIa (setting [1]).
For the compound `NC(=O)c1cc(-c2cnc([C@@H]3CC[C@@H]4CC(c5c(-n6cc(C(F)(F)F)nn6)ccc(Cl)c5F)=CC(=O)N43)[nH]2)ccn1` [Example 204, 4-(2-((3S,8aR)-7-(3-Chloro-2-fluoro-6-(4-(trifluoromethyl)-1H-1,2,3-triazol-1-yl)phenyl)-5-oxo-1,2,3,5,8,8a-hexahydroindolizin-3-yl)-1H-imidazol-5-yl)picolinamide], the IC50 was 24.5 nM on human plasma kallikrein and 29.1 nM at Factor XIa (setting [1]).
For `NC(=O)c1ncc(-c2c[nH]c([C@@H]3CC[C@@H]4CC(c5c(-n6cnnn6)ccc(Cl)c5F)=CC(=O)N43)n2)s1` [Example 205, 5-(2-((3S,8aR)-7-(3-Chloro-2-fluoro-6-(1H-tetrazol-1-yl)phenyl)-5-oxo-1,2,3,5,8,8a-hexahydroindolizin-3-yl)-1H-imidazol-4-yl)thiazole-2-carboxamide] the same measures were 12.5 nM and 3.3 nM.
As to `NC(=O)c1ccc(-c2cnc([C@@H]3CC[C@@H]4CC(c5c(-n6cc(Cl)nn6)ccc(Cl)c5F)=CC(=O)N43)[nH]2)s1` [Example 207, 5-(2-((3S,8aR)-7-(3-Chloro-6-(4-chloro-1H-1,2,3-triazol-1-yl)-2-fluorophenyl)-5-oxo-1,2,3,5,8,8a-hexahydroindolizin-3-yl)-1H-imidazol-5-yl)thiophene-2-carboxamide], the IC50 at human plasma kallikrein amounted to 7.7 nM; on Factor XIa (setting [1]), 2.5 nM.
For `NC(=O)c1ncc(-c2cnc([C@@H]3CC[C@@H]4CC(c5c(-n6cc(Cl)nn6)ccc(Cl)c5F)=CC(=O)N43)[nH]2)s1` [Example 208, 5-(2-((3S,8aR)-7-(3-Chloro-6-(4-chloro-1H-1,2,3-triazol-1-yl)-2-fluorophenyl)-5-oxo-1,2,3,5,8,8a-hexahydroindolizin-3-yl)-1H-imidazol-5-yl)thiazole-2-carboxamide], the half-inhibitory concentration (IC50) on human plasma kallikrein is 7.8 nM; on Factor XIa (setting [1]), 4.6 nM.
Consider `NC(=O)c1ccc(-c2nc([C@@H]3CC[C@@H]4CC(c5c(-n6cnnn6)ccc(Cl)c5F)=CC(=O)N43)[nH]c2Cl)s1` [Example 211, 5-(5-Chloro-2-((3S,8aR)-7-(3-chloro-2-fluoro-6-(1H-tetrazol-1-yl)phenyl)-5-oxo-1,2,3,5,8,8a-hexahydroindolizin-3-yl)-1H-imidazol-4-yl)thiophene-2-carboxamide], for which the IC50 on human plasma kallikrein was 0.8 nM; at Factor XIa (setting [2]), 0.2 nM.
For the compound `NC(=O)c1scc(-c2c[nH]c([C@@H]3CC[C@@H]4CC(c5c(-n6cnnn6)ccc(Cl)c5F)=CC(=O)N43)n2)c1F` [Example 214, 4-(2-((3S,8aR)-7-(3-Chloro-2-fluoro-6-(1H-tetrazol-1-yl)phenyl)-5-oxo-1,2,3,5,8,8a-hexahydroindolizin-3-yl)-1H-imidazol-4-yl)-3-fluorothiophene-2-carboxamide], the 50% inhibitory concentration (IC50) was 1.7 nM at human plasma kallikrein and 1.4 nM on Factor XIa (setting [1]).
For `NC(=O)c1sc(-c2c[nH]c([C@@H]3CC[C@H]4CC(c5c(-n6cnnn6)ccc(Cl)c5F)=CC(=O)N43)n2)cc1F` [Example 215, 5-(2-((3S,8aS)-7-(3-Chloro-2-fluoro-6-(1H-tetrazol-1-yl)phenyl)-5-oxo-1,2,3,5,8,8a-hexahydroindolizin-3-yl)-1H-imidazol-4-yl)-3-fluorothiophene-2-carboxamide] the same measures were 117 nM and over 100 nM.
For `NC(=O)c1sc(-c2c[nH]c([C@@H]3CC[C@@H]4CC(c5c(-n6cnnn6)ccc(Cl)c5F)=CC(=O)N43)n2)cc1F` [Example 216, 5-(2-((3S,8aR)-7-(3-Chloro-2-fluoro-6-(1H-tetrazol-1-yl)phenyl)-5-oxo-1,2,3,5,8,8a-hexahydroindolizin-3-yl)-1H-imidazol-4-yl)-3-fluorothiophene-2-carboxamide], in that order: 27.4 nM and 19.6 nM.
For `O=C1C=C(c2c(-n3cnnn3)ccc(Cl)c2F)C[C@H]2CC[C@@H](c3ncc(-c4c[nH]nc4F)[nH]3)N12` [Example 217, (3S,8aR)-7-(3-Chloro-2-fluoro-6-(1H-tetrazol-1-yl)phenyl)-3-(5-(3-fluoro-1H-pyrazol-4-yl)-1H-imidazol-2-yl)-2,3,8,8a-tetrahydroindolizin-5(1H)-one], in that order: 32.6 nM and 4.5 nM.
In the case of `NC(=O)c1cc(-c2nc([C@@H]3CCC4CC(c5c(-n6cnnn6)ccc(Cl)c5F)=CC(=O)N43)[nH]c2Cl)cs1` (stereo partly drawn) [Example 218, 4-(5-Chloro-2-((3S)-7-(3-chloro-2-fluoro-6-(1H-tetrazol-1-yl)phenyl)-5-oxo-1,2,3,5,8,8a-hexahydroindolizin-3-yl)-1H-imidazol-4-yl)thiophene-2-carboxamide], the concentration for half-maximal inhibition (IC50) came out at 0.7 nM on human plasma kallikrein and 0.3 nM at Factor XIa (setting [1]).
With `NC(=O)c1cc(-c2c[nH]c([C@@H]3CCC4CC(c5c(-n6cnnn6)ccc(Cl)c5F)=CC(=O)N43)n2)cs1` (stereo partly drawn) [Example 219, 4-(2-((3S)-7-(3-Chloro-2-fluoro-6-(1H-tetrazol-1-yl)phenyl)-5-oxo-1,2,3,5,8,8a-hexahydroindolizin-3-yl)-1H-imidazol-4-yl)thiophene-2-carboxamide], the figures for the 50% inhibitory concentration (IC50) at human plasma kallikrein and at Factor XIa (setting [1]) were 1.9 nM and 2.1 nM, respectively.
Turning to `NC(=O)c1ccc(-c2c[nH]c([C@@H]3CC[C@@H]4CC(c5c(-n6cc(C(F)(F)F)nn6)ccc(Cl)c5F)=CC(=O)N43)n2)s1` [Example 220, 5-(2-((3S,8aR)-7-(3-Chloro-2-fluoro-6-(4-(trifluoromethyl)-1H-1,2,3-triazol-1-yl)phenyl)-5-oxo-1,2,3,5,8,8a-hexahydroindolizin-3-yl)-1H imidazol-4-yl)thiophene-2-carboxamide], the concentration for half-maximal inhibition (IC50) on human plasma kallikrein worked out at 9.7 nM; on Factor XIa (setting [1]) it was 5 nM.
For `O=C1C=C(c2c(-n3cnnn3)ccc(Cl)c2F)C[C@H]2CC[C@@H](c3ncc(-c4ccnc(CO)c4F)[nH]3)N12` [Example 222, (3S,8aR)-7-(3-Chloro-2-fluoro-6-(1H-tetrazol-1-yl)phenyl)-3-(5-(3-fluoro-2-(hydroxymethyl)pyridin-4-yl)-1H-imidazol-2-yl)-2,3,8,8a-tetrahydroindolizin-5(1H)-one], in that order: 12.6 nM and 1.8 nM.
